Laboratory results published in US20110201603A1, “Novel Acylaminobenzamide Derivatives” (Bayer CropScience AG, priority 2008, published 2011).

Tested on: Boophilus microplus
Assay: Boophilus microplus test (injection)
Type: in vivo
Details: application rate of 20 μg/animal; injection into adult engorged female ticks; after 7 days
Experimental: Solvent: dimethyl sulfoxide
To produce a suitable preparation of active compound, 10 mg of active compound are dissolved in 0.5 ml solvent, and the concentrate is diluted with solvent to the desired concentration. Five adult engorged female ticks (Boophilus microplus) are injected with compound solution into the abdomen. Ticks are transferred into replica plates and incubated in a climate chamber for a period of time. Egg deposition of fertile eggs is monitored. After 7 days mortality in % is determined. 100% means that all eggs are infertile; 0% means that all eggs are fertile.

CCc1cc(C(n2cc(C(F)(F)F)cn2)(C(F)(F)F)C(F)(F)F)cc(C)c1NC(=O)c1cccc(N)c1 [11-114]
activity (mortality in %; 100% means all eggs are infertile): 80%
